Patent US8148404B2, “Modulators of CB1 receptors” (7TM Pharma A/S, priority 2006, dated 2012)
pIC50: −log10 of the molar value.

These compounds were tested against T1, human CB1 receptor (Homo sapiens, UniProt P21554) (assay: Cannabinoid Receptor-1 functional assay: inhibition of CP55940-induced [35S]GTPγS binding to membranes of CHO-K1 cells expressing human CB1). Settings: 3 nM CP55940, [35S]GTPγS SPA, hCB1 membranes; read-out: IC50 value for antagonizing a CB1 receptor agonist.
T1 construct: expressed in transfected cells; membranes used
Type: biochemical
Excerpt: Transfection and Cell Culture—The cDNA encoding the human CB1 (Cannabinoid Receptor-1) receptor (GenBank accession number NM_016083) was cloned from a human adipose tissue cDNA library and cloned into the eukaryotic expression vector pcDNA3.1 (Invitrogen).
Chinese Hamster Ovary cells (CHO-K1) stably expressing recombinant human CB1 were generated by transfecting the plasmid containing the coding sequence of the human CB1 receptor in CHO-K1 cells, using lipofectamin, according to the manufacturer instructions. Resistant clones were selected in the presence of 600 μg/ml G418 (Life technology). Stably transfected CHO-K1 cells were maintained in Ham's F-12 culture medium (Invitrogen), supplemented with 10% fetal calf serum (Invitrogen), 100 U/ml penicillin, 100 μg/ml streptomycin (Life Technology), and 600 μg/ml G418.
Functional activities of the above examples of compounds of the invention were assessed in vitro by measuring their ability to inhibit CP55940-induced [^35S]GTPγS binding to membranes prepared from CHO-K1 cells expressing the human CB1 receptor (described in Transfection and Cell Culture). CP55940 is a well known non-selective CB1 and CB2 receptor agonist (e.g Felder et al., 1995, Molecular Pharmacology, (48) 443-50). Membranes were prepared by a standard procedure. Briefly, cells were harvested using 10 mM EDTA and collected by centrifugation. Pelleted cells were homogenized in ice-cold 20 mM Hepes (pH 7.4), 10 mM EDTA and protease inhibitors (Complete protease inhibitor cocktail tablet, Roche) using an Ultra Turrax Homogenizer. The homogenate was centrifuged at 14 000 rpm for 45 min. at 4° C. The resultant pellet was resuspended in the same buffer but with only 0.1 mM EDTA and was again centrifuged at 14 000 rpm for 45 min. at 4° C. The resulting pellet (membranes) was resuspended in 20 mM Hepes (pH 7.4), 0.1 mM EDTA, 2 mM MgCl2 and protease inhibitors and protein concentration was determined by Micro BCA Protein Assay Reagent Kit (Pierce Biotechnology) according to the manufacturer instructions. The [^35S]GTPγS SPA (Scintillation Proximity Assay) binding assay was performed by incubating 5 μg/well hCB1-membranes with 1 nM [^35S]GTPγS (Perkin Elmer—NEG 030H) in the presence of 3 nM of CP55940 and various concentrations of the test compounds at room temperature for 1 hr in 96-well microtiter plates. 0.4 mg/well SPA beads (PVT-WGA; RPNQ0001 Amersham Pharmacia Biotech) were then added and the incubation continued for further 30 min. on an orbital shaker. The assay buffer contained 50 mM HEPES (pH 7.5), 50 mM NaCl, 2.5 mM MgCl2, 0.1% BSA, 1 μM GDP and 100 μg/ml Saponin. Microtiter plates were centrifuged at 1500 rpm for 5 min. and radioactivity was read immediately using a Topcounter (PerkinElmer Life Sciences). Data were analyzed and IC50 values determined by non-linear regression using the Prism software (GraphPad Software, San Diego).

T1 sequence (P21554 whole entry): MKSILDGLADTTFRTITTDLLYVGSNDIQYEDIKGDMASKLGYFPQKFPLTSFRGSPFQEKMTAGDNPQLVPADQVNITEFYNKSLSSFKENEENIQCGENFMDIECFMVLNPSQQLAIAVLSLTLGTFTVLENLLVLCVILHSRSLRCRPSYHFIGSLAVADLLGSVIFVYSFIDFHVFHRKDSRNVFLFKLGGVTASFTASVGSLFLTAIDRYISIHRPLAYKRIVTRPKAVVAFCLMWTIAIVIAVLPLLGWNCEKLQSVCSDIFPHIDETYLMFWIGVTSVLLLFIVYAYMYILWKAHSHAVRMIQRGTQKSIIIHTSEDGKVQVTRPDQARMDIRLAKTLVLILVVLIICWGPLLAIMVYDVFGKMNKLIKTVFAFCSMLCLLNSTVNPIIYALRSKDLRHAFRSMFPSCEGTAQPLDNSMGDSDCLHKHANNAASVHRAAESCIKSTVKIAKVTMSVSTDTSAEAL

pIC50 | SMILES
> 6.52 | O=C(O)Cc1c(C(=O)N2CCC(O)(c3ccccc3F)CC2)nn(-c2ccccc2Cl)c1-c1ccc(Cl)cc1 [[1.21], {1-(2-Chloro-phenyl)-5-(4-chloro-phenyl)-3-[4-(2-fluoro-phenyl)-4-hydroxy-piperidine-1carbonyl]-1H-pyrazol-4-yl}-acetic acid]
5.52 to 6.52 | Cc1ccc(C2(O)CCN(C(=O)c3nn(-c4ccccc4Cl)c(-c4ccc(Cl)cc4)c3CC(=O)O)CC2)nc1 [[1.22], [5-(4-Chloro-phenyl)-1-(2-chloro-phenyl)-3-(4′-hydroxy-5-methyl-3′,4′,5′,6′-tetrahydro-2′H-[2,4′]bipyridinyl-1′-carbonyl)-1H-pyrazol-4-yl]-acetic acid]
> 6.52 | O=C(O)Cc1c(C(=O)N2CCC(c3cccs3)CC2)nn(-c2ccccc2Cl)c1-c1ccc(Cl)cc1 [[1.23], [5-(4-Chloro-phenyl)-1-(2-chloro-phenyl)-3-(4-thiophen-2-yl-piperidine-1-carbonyl)-1H-pyrazol-4-yl]-acetic acid]
> 6.52 | O=C(O)Cc1c(C(=O)N2CCC(O)(c3csc(Br)n3)CC2)nn(-c2ccccc2Cl)c1-c1ccc(Cl)cc1 [[1.24], [3-[4-(2-Bromo-thiazol-4-yl)-4-hydroxy-piperidine-1-carbonyl]-5-(4-chloro-phenyl)-1-(2-chloro-phenyl)-1H-pyrazol-4-yl]-acetic acid]
> 6.52 | O=C(O)Cc1c(C(=O)N2CCC(O)(c3cccc(F)c3F)CC2)nn(-c2ccccc2Cl)c1-c1ccc(Cl)cc1 [[1.25], {5-(4-Chloro-phenyl)-1-(2-chloro-phenyl)-3-[4-(2,3-difluoro-phenyl)-4-hydroxy-piperidine-1-carbonyl]-1H-pyrazol-4yl}-acetic acid]
> 6.52 | O=C(O)Cc1c(C(=O)N2CCC(c3ccc(F)cc3F)CC2)nn(-c2ccccc2Cl)c1-c1ccc(Cl)cc1 [[1.26], {1-(2-Chloro-phenyl)-5-(4-chloro-phenyl)-3-[4-(2,4-difluoro-phenyl)-piperidine-1-carbonyl]-1H-pyrazol-4-yl}-acetic acid]
> 6.52 | O=C(O)Cc1c(C(=O)N2CCC(c3ccccc3F)CC2)nn(-c2ccccc2Cl)c1-c1ccc(Cl)cc1 [[1.27], {1-(2-Chloro-phenyl)-5-(4-chloro-phenyl)-3-[4-(2-fluoro-phenyl)-piperidine-1-carbonyl]-1H-pyrazol-4-yl}-acetic acid]
> 6.52 | O=C(O)Cc1c(C(=O)N2CCC(c3ccc(C(F)(F)F)cc3)CC2)nn(-c2ccccc2Cl)c1-c1ccc(Cl)cc1 [[1.28], {1-(2-Chloro-phenyl)-5-(4-chloro-phenyl)-3-[4-(4-trifluoromethyl-phenyl)-piperidine-1-carbonyl]-1H-pyrazol-4-yl}-acetic acid]
> 6.52 | O=C(O)Cc1c(C(=O)N2CCC(c3ccc(Cl)cc3)CC2)nn(-c2ccccc2Cl)c1-c1ccc(Cl)cc1 [[1.29], {1-(2-Chloro-phenyl)-5-(4-chloro-phenyl)-3-[4-(4-chloro-phenyl)-piperidine-1-carbonyl]-1H-pyrazol-4-yl}-acetic acid]
5.00 to 5.52 | O=C(O)Cc1c(C(=O)N2CCC(c3cccc(C(=O)O)c3)CC2)nn(-c2ccccc2Cl)c1-c1ccc(Cl)cc1 [[1.30], 3-{1-[4-Carboxymethyl-1-(2-chloro-phenyl)-5-(4-chloro-phenyl)-1H-pyrazole-3-carbonyl]-piperidin-4-yl}-benzoic acid]
> 6.52 | O=C(O)Cc1c(C(=O)N2CCC(c3cccc(Cl)c3)CC2)nn(-c2ccccc2Cl)c1-c1ccc(Cl)cc1 [[1.31], {1-(2-Chloro-phenyl)-5-(4-chloro-phenyl)-3-[4-(3-chloro-phenyl)-piperidine-1-carbonyl]-1H-pyrazol-4-yl}-acetic acid]
5.52 to 6.52 | O=C(O)Cc1c(C(=O)N2CCC(c3ccncc3)CC2)nn(-c2ccccc2Cl)c1-c1ccc(Cl)cc1 [[1.32], [1-(2-Chloro-phenyl)-5-(4-chloro-phenyl)-3-(3,4,5,6-tetrahydro-2H-[4,4′]bipyridinyl-1-carbonyl)-1H-pyrazol-4-yl}-acetic acid]
> 6.52 | O=C(O)Cc1c(C(=O)N2CCC(c3ccccc3)CC2)nn(-c2ccccc2Cl)c1-c1ccc(Cl)cc1 [[1.33], [1-(2-Chloro-phenyl)-5-(4-chloro-phenyl)-3-(4-phenyl-piperidine-1-carbonyl)-1H-pyrazol-4-yl]-acetic acid]
> 6.52 | N#Cc1cccc(C2CCN(C(=O)c3nn(-c4ccccc4Cl)c(-c4ccc(Cl)cc4)c3CC(=O)O)CC2)c1 [[1.34], {1-(2-Chloro-phenyl)-5-(4-chloro-phenyl)-3-[4-(3-cyano-phenyl)-piperidine-1-carbonyl]-1H-pyrazol-4-yl}-acetic acid]
> 6.52 | O=C(O)Cc1c(C(=O)N2CCC(c3cc(Cl)cc(Cl)c3)CC2)nn(-c2ccccc2Cl)c1-c1ccc(Cl)cc1 [[1.35], {1-(2-Chloro-phenyl)-5-(4-chloro-phenyl)-3-[4-(3,5-dichloro-phenyl)-piperidine-1-carbonyl]-1H-pyrazol-4-yl}-acetic acid]
> 6.52 | O=C(O)Cc1c(C(=O)N2CCC(c3cc(F)cc(F)c3)CC2)nn(-c2ccccc2Cl)c1-c1ccc(Cl)cc1 [[1.36], {1-(2-Chloro-phenyl)-5-(4-chloro-phenyl)-3-[4-(3,5-difluoro-phenyl)-piperidine-1-carbonyl]-1H-pyrazol-4-yl}-acetic acid]
> 6.52 | COc1cccc(C2CCN(C(=O)c3nn(-c4ccccc4Cl)c(-c4ccc(Cl)cc4)c3CC(=O)O)CC2)c1 [[1.37], {1-(2-Chloro-phenyl)-5-(4-chloro-phenyl)-3-[4-(3-methoxy-phenyl)-piperidine-1-carbonyl]-1H-pyrazol-4-yl}-acetic acid]
> 6.52 | O=C(O)Cc1c(C(=O)N2CCCC2c2ccc(C(F)(F)F)cc2)nn(-c2ccccc2Cl)c1-c1ccc(Cl)cc1 (stereo not shown) [[1.38], {1-(2-Chloro-phenyl)-5-(4-chloro-phenyl)-3-[2-(4-trifluoromethyl-phenyl)-pyrrolidine-1-carbonyl]-1H-pyrazol-4-yl}-acetic acid]
> 6.52 | O=C(O)Cc1c(C(=O)N2CCC(c3ccc(C(F)(F)F)cc3)C2)nn(-c2ccccc2Cl)c1-c1ccc(Cl)cc1 (stereo not shown) [[1.39], {1-(2-Chloro-phenyl)-5-(4-chloro-phenyl)-3-[3-(4-trifluoromethyl-phenyl)-pyrrolidine-1-carbonyl]-1H-pyrazol-4-yl}-acetic acid]
> 6.52 | O=C(O)Cc1c(C(=O)N2CCC(c3cccc(C(F)(F)F)c3)CC2)nn(-c2ccccc2Cl)c1-c1ccc(Cl)cc1 [[1.40], {1-(2-Chloro-phenyl)-5-(4-chloro-phenyl)-3-[4-(3-trifluoromethyl-phenyl)-piperidine-1-carbonyl]-1H-pyrazol-4-yl}-acetic acid]
5.52 to 6.52 | COC[C@@H]1CCCN1C(=O)c1nn(-c2ccccc2Cl)c(-c2ccc(Cl)cc2)c1CC(=O)O [[1.41], [1-(2-Chloro-phenyl)-5-(4-chloro-phenyl)-3-((S)-2-methoxymethyl-pyrrolidine-1-carbonyl)-1H-pyrazol-4-yl]-acetic acid]
> 6.52 | O=C(O)Cc1c(C(=O)N2CCC(O)(c3ccc(F)c(C(F)(F)F)c3)CC2)nn(-c2ccccc2Cl)c1-c1ccc(Cl)cc1 [[1.42], {1-(2-Chloro-phenyl)-5-(4-chloro-phenyl)-3-[4-(4-fluoro-3-trifluoromethyl-phenyl)-4-hydroxy-piperidine-1-carbonyl]-1H-pyrazol-4-yl}-acetic acid]
